Test results reported in ChEMBL document CHEMBL1201862, “PubChem BioAssay data set” (2004).
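Each compound was tested at five concentrations against cells in 96-well plates for 48 hours. The concentration for 50% growth inhibition is given as GI50.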 The source made the active and inactive calls. Rule as the data show it: active = GI50 up to about 1.1 µM and inactive = higher.

Columns and labels:
Test in all cases: NCI-60 cell line screen, 48 h
[1] = system: HOP-18
[2] = system: M19-MEL
[3] = system: HCT-116
[4] = system: 786-0
[5] = system: RXF 393
[6] = system: UACC-62
[7] = system: OVCAR-8
[8] = system: DMS-114
[9] = system: LOX IMVI
[10] = system: NCI-H23
[11] = system: NCI-H522
[12] = system: SF-268
[13] = system: SK-OV-3
[14] = system: A549
[15] = system: CCRF-CEM
[16] = system: SW-620
[17] = system: RPMI-8226
[18] = system: TK-10
[19] = system: SF-295
[20] = system: K562
[21] = system: MOLT-4
[22] = system: OVCAR-3
[23] = system: SNB-19
[24] = system: SNB-78
[25] = system: U-251
[26] = system: IGROV-1
[27] = system: XF498
[28] = system: SK-MEL-5
[29] = system: SN12C
[30] = system: KM-20L2
[31] = system: SF-539
[32] = system: DMS-273
[33] = system: SNB-75
[34] = system: KM12
[35] = system: LXFL 529
[36] = system: HT-29
[37] = system: NCI-H460
[38] = system: OVCAR-4
[39] = system: HL-60
[40] = system: M14
[41] = system: SK-MEL-28
[42] = system: COLO 205
[43] = system: OVCAR-5
[44] = system: HCC 2998
[45] = system: DLD-1
[46] = system: CAKI-1
[47] = system: A498
[48] = system: NCI-H226
[49] = system: HOP-92
[50] = system: HCT-15
[51] = system: UO-31
[52] = system: SK-MEL-2
[53] = system: HOP-62
[54] = system: EKVX
[55] = system: Malme-3M
[56] = system: ACHN
[57] = system: UACC-257
[58] = system: SR

## COc1ccc2c(c1)CCCC1C3=NCCC3(C)CSC21 (configuration not stated)
[1]
  GI50: 80.4 µM (inactive)
[2]
  GI50: 72.1 µM (inactive)
[3]
  GI50: 37.5 µM (inactive)
[4]
  GI50: 70.3 µM (inactive)
[5]
  GI50: 95.5 µM (inactive)
[6]
  GI50: 55 µM (inactive)
[7]
  GI50: 59.7 µM (inactive)
[8]
  GI50: 37.8 µM (inactive)
[9]
  GI50: 30.2 µM (inactive)
[10]
  GI50: 47.3 µM (inactive)
[11]
  GI50: 86.9 µM (inactive)
[12]
  GI50: > 100 µM (inactive)
[13]
  GI50: > 100 µM (inactive)
[14]
  GI50: > 100 µM (inactive)
[15]
  GI50: 70.3 µM (inactive)
[16]
  GI50: > 100 µM (inactive)
[17]
  GI50: 55.8 µM (inactive)
[18]
  GI50: 70.8 µM (inactive)
[19]
  GI50: 86.9 µM (inactive)
[20]
  GI50: 31 µM (inactive)
[21]
  GI50: 32.6 µM (inactive)
[22]
  GI50: 97.3 µM (inactive)
[23]
  GI50: > 100 µM (inactive)
[24]
  GI50: > 100 µM (inactive)
[25]
  GI50: 74.5 µM (inactive)
[26]
  GI50: > 100 µM (inactive)
[27]
  GI50: > 100 µM (inactive)
[28]
  GI50: 42.8 µM (inactive)
[29]
  GI50: > 100 µM (inactive)
[30]
  GI50: 22.8 µM (inactive)
[31]
  GI50: 51.6 µM (inactive)
[32]
  GI50: 36.6 µM (inactive)
[33]
  GI50: 67.8 µM (inactive)
[34]
  GI50: > 100 µM (inactive)
[35]
  GI50: 58.5 µM (inactive)
[36]
  GI50: 32.4 µM (inactive)
[37]
  GI50: 74 µM (inactive)
[38]
  GI50: > 100 µM (inactive)
[39]
  GI50: 17.1 µM (inactive)
[40]
  GI50: 37.4 µM (inactive)
[41]
  GI50: 36.2 µM (inactive)
[42]
  GI50: 52.6 µM (inactive)

## COc1ccccc1OCC(COC(=O)Nc1ccccc1)OC(=O)Nc1ccccc1 (configuration not stated)
[1]
  GI50: 59.3 µM (inactive)
[3]
  GI50: 61.1 µM (inactive)
[5]
  GI50: 12.8 µM (inactive)
[6]
  GI50: 32.6 µM (inactive)
[43]
  GI50: > 100 µM (inactive)
[44]
  GI50: > 100 µM (inactive)
[7]
  GI50: 37.4 µM (inactive)
[8]
  GI50: 47.1 µM (inactive)
[9]
  GI50: 25.9 µM (inactive)
[10]
  GI50: 73.1 µM (inactive)
[45]
  GI50: > 100 µM (inactive)
[11]
  GI50: 49.4 µM (inactive)
[12]
  GI50: 57.5 µM (inactive)
[46]
  GI50: 20.3 µM (inactive)
[13]
  GI50: > 100 µM (inactive)
[47]
  GI50: 60.3 µM (inactive)
[48]
  GI50: 36.2 µM (inactive)
[49]
  GI50: 6.25 µM (inactive)
[14]
  GI50: 50.6 µM (inactive)
[50]
  GI50: > 100 µM
[15]
  GI50: > 100 µM (inactive)
[16]
  GI50: > 100 µM (inactive)
[51]
  GI50: 49.3 µM (inactive)
[18]
  GI50: > 100 µM (inactive)
[52]
  GI50: 23.1 µM (inactive)
[19]
  GI50: 39.1 µM (inactive)
[20]
  GI50: > 100 µM (inactive)
[22]
  GI50: > 100 µM (inactive)
[23]
  GI50: 31.5 µM (inactive)
[53]
  GI50: 56.6 µM (inactive)
[24]
  GI50: 43.3 µM (inactive)
[54]
  GI50: > 100 µM (inactive)
[25]
  GI50: 41.4 µM (inactive)
[26]
  GI50: > 100 µM (inactive)
[27]
  GI50: 60.4 µM (inactive)
[55]
  GI50: 60.8 µM (inactive)
[28]
  GI50: 79.3 µM (inactive)
[29]
  GI50: 28.5 µM (inactive)
[56]
  GI50: > 100 µM (inactive)
[30]
  GI50: > 100 µM (inactive)
[31]
  GI50: 17.2 µM (inactive)
[32]
  GI50: 54.6 µM (inactive)
[33]
  GI50: 17.1 µM (inactive)
[57]
  GI50: > 100 µM (inactive)
[34]
  GI50: 68.4 µM (inactive)
[35]
  GI50: 27.5 µM (inactive)
[36]
  GI50: 59.8 µM (inactive)
[37]
  GI50: 48.5 µM (inactive)
[38]
  GI50: 55.3 µM (inactive)
[39]
  GI50: 40.6 µM (inactive)
[40]
  GI50: 91.8 µM (inactive)
[41]
  GI50: > 100 µM (inactive)
[42]
  GI50: 94.2 µM (inactive)

## CC(=O)OCCOCNC(=S)N/N=C/c1ccc([N+](=O)[O-])s1
[1]
  GI50: > 100 µM (inactive)
[2]
  GI50: 18.2 µM (inactive)
[3]
  GI50: 20.1 µM (inactive)
[4]
  GI50: > 100 µM (inactive)
[5]
  GI50: > 100 µM (inactive)
[6]
  GI50: 24.3 µM (inactive)
[43]
  GI50: 37.3 µM (inactive)
[44]
  GI50: 43.2 µM (inactive)
[58]
  GI50: 9.68 µM (inactive)
[7]
  GI50: 45.5 µM (inactive)
[8]
  GI50: 7.85 µM (inactive)
[9]
  GI50: 33.4 µM (inactive)
[10]
  GI50: 19 µM (inactive)
[45]
  GI50: 31.1 µM (inactive)
[11]
  GI50: 11.2 µM (inactive)
[12]
  GI50: 61.9 µM (inactive)
[13]
  GI50: > 100 µM (inactive)
[47]
  GI50: 86.7 µM (inactive)
[48]
  GI50: > 100 µM (inactive)
[49]
  GI50: > 100 µM (inactive)
[14]
  GI50: 43.4 µM (inactive)
[50]
  GI50: 30.4 µM
[15]
  GI50: 4.72 µM (inactive)
[16]
  GI50: 30.5 µM (inactive)
[17]
  GI50: 29.1 µM (inactive)
[51]
  GI50: > 100 µM (inactive)
[18]
  GI50: > 100 µM (inactive)
[52]
  GI50: 67.3 µM (inactive)
[19]
  GI50: 40.4 µM (inactive)
[20]
  GI50: 21.7 µM (inactive)
[21]
  GI50: 28.8 µM (inactive)
[22]
  GI50: 29.3 µM (inactive)
[23]
  GI50: > 100 µM (inactive)
[53]
  GI50: > 100 µM (inactive)
[24]
  GI50: > 100 µM (inactive)
[54]
  GI50: 55.5 µM (inactive)
[25]
  GI50: 32.1 µM (inactive)
[26]
  GI50: 34 µM (inactive)
[27]
  GI50: > 100 µM (inactive)
[55]
  GI50: 48.4 µM (inactive)
[28]
  GI50: 25.7 µM (inactive)
[29]
  GI50: 36.4 µM (inactive)
[56]
  GI50: 46.5 µM (inactive)
[30]
  GI50: 32.4 µM (inactive)
[31]
  GI50: 34 µM (inactive)
[32]
  GI50: 28.1 µM (inactive)
[33]
  GI50: > 100 µM (inactive)
[57]
  GI50: 23.8 µM (inactive)
[34]
  GI50: 34.4 µM (inactive)
[35]
  GI50: 73.3 µM (inactive)
[36]
  GI50: 20.7 µM (inactive)
[37]
  GI50: 42.4 µM (inactive)
[38]
  GI50: 64.1 µM (inactive)
[39]
  GI50: 3.81 µM (inactive)
[40]
  GI50: 40 µM (inactive)
[41]
  GI50: > 100 µM (inactive)
[42]
  GI50: 2.08 µM (inactive)
